Results as given in US20100129805A1, “SLC1A1 ANTIPSYCHOTIC DRUG RESPONSE MARKERS” (priority 2006, published 2010).

System: patients with DSM-III-R or DSM-IV diagnoses of SCZ refractory or intolerant to conventional antipsychotics
Assay: Clozapine response after 6 months treatment (% score change on BPRS, BPOS, BNEG) by SLC1A1 genotype/haplotype
Type: in vivo, human
Conditions: 6 months clozapine
Text: Effect of 5 Single Nucleotide Polymorphisms (SNPs) Across the SLC1A1 Gene on Clozapine (CZ) Response After 6 Months Treatment in Two Distinct Schizophrenic Populations (Caucasian and African-American) Refractory or Intolerant to Conventional Antipsychotics.
97 patients (73 Caucasians and 24 African-Americans) with DSM-III-R or DSM-IV diagnoses of SCZ assessed from Case Western Reserve University, Cleveland, Ohio.
No significant differences were observed between Caucasians and African-Americans in terms of gender ratio (P=0.234) or mean age (P=0.561). Almost all subjects met criteria for treatment refractoriness or intolerance to typical antipsychotic therapy as defined by Kane et al (1988). Patients underwent a washout period of 2 to 4 weeks during which, unless clinically necessary, they received no medications before starting clozapine (CZ). CZ treatment was continued for a minimum of 6 months during which patients were evaluated prospectively. CZ blood levels were monitored throughout course of treatment to ascertain compliance,
Treatment response is evaluated as a percentage (%) score change from baseline using the 18-item Brief Psychiatric Rating Scale (BPRS), a 4-item positive symptom subscale (BPOS) and 3-item negative symptom subscale (BNEG)—after 6 months of clozapine treatment. % score change=(6 months score−baseline score)/Baseline score. A negative value of % score change in each scale would indicate an improvement in symptoms measured by that particular scale.
Blood samples were collected from clinical sites and sent to the Centre for Addiction and Mental Health (CAMH) in Toronto, ON, Canada—where genotyping of patients' DNA was performed by 5′-exonuclease fluorescence assays. The 5 informative SNPs (minor allele frequency>20%) spanning SLC1A1 were chosen based on location (see Table 1)—with 2 in coding regions and 3 from different intronic regions and different haplotype blocks. Laboratory staff was blind to the psychiatric ratings.
Within each ethnic population, individual SNP analyses of % score changes (continuous data) were performed using Analysis of Variance (ANOVA) in STATA ver7.0. Haplotype analysis of unphased quantitative data was performed using QTPHASE (Dudbridge, 2003).

CN1CCN(C2=Nc3cc(Cl)ccc3Nc3ccccc32)CC1 [clozapine] was tested, and the “Mean BPOS % score change” value (haplotype 1-1-1 in SNP window 1-2-3, Caucasians and African-Americans combined) was −0.198, the “Mean BNEG % score change” value (haplotype 1-1 in SNP window 4-5, African-Americans) was −0.379 and the “Mean BNEG % score change” value (haplotype 1-2-1 in SNP window 3-4-5, African-Americans) was 0.086. The “Mean BNEG % score change” value (haplotype 1-2 in SNP window 3-4, African-Americans) was 0.143, the “Mean BNEG % score change” value (haplotype 2-1-1 in SNP window 2-3-4, Caucasians) was 0.295 and the “Mean BNEG % score change” value (haplotype 2-1-1 in SNP window 3-4-5, African-Americans) was −0.379. The “Mean BNEG % score change” value (haplotype 2-1 in SNP window 3-4, African-Americans) was −0.341, the “Mean BNEG % score change” value (haplotype 2-1 in SNP window 4-5, African-Americans) was 0.107 and the “Mean BNEG % score change” value (haplotype 2-2-1 in SNP window 1-2-3, Caucasians and African-Americans combined) was 0.592. The “Mean BNEG % score change” value (haplotype 2-2-1 in SNP window 1-2-3, Caucasians) was 0.889, the “Mean BNEG % score change” value (rs301434 genotype C/C, Caucasians & African-Americans combined) was −0.115 and the “Mean BPRS % score change” value (rs301434 genotype C/C, Caucasians, negative = improvement) was −0.248. The “Mean BNEG % score change” value (rs301434 genotype T/C, Caucasians & African-Americans combined) was −0.136, the “Mean BPRS % score change” value (rs301434 genotype T/C, Caucasians, negative = improvement) was −0.310 and the “Mean BNEG % score change” value (rs301434 genotype T/T, Caucasians & African-Americans combined) was 0.636. For the same compound, the “Mean BPRS % score change” value (rs301434 genotype T/T, Caucasians, negative = improvement) was 1.310, the “Mean BNEG % score change” value (rs1980943 genotype A/A, African-Americans, negative = improvement) was 3.000 and the “Mean BNEG % score change” value (rs1980943 genotype G/A, African-Americans, negative = improvement) was −0.378. For the same compound, the “Mean BNEG % score change” value (rs1980943 genotype G/G, African-Americans, (6 months score-baseline score)/baseline score, negative = improvement) was 0.067.
